These results are taken from US12428428B2, “Tricyclic tetrahydroisoquinoline derivative, preparation method therefor and application thereof in medicine” (JIANGSU HENGRUI MEDICINE CO., LTD., priority 2020, dated 2025).

What all share (type): in vitro ADME
For data set [1], the target named is T1, CYP3A4 (Homo sapiens (Human), UniProt P08684). As to the kind of experiment: Time-dependent inhibition of site of metabolism of testosterone in human liver microsome CYP3A4. To be noted: testosterone substrate; for IC50 shift at 30 min: human, human liver microsomes, probe testosterone (75 µM). As for the experimental part: • 1. Phosphate buffer (20×PBS, purchased from Sangon); • 2. NADPH (ACROS, A2646-71-1); • 3. Human liver microsome (Corning Gentest, Cat No, 452161, Lot No. 905002, Donor36); • 4. ABI QTrap 4000 LC-MS System (AB Sciex); • 5. ZORBAX Extend-C18, 3×50 mm, 3.5 μm (Agilent, USA); • 6. CYP probe substrate (testosterone, Vocko, CAS No. [58-22-0]/75 μM) and positive control inhibitor (verapamil, Adamas Reagent Co Ltd, Cat No. 25904A).
T1 sequence (P08684 whole entry): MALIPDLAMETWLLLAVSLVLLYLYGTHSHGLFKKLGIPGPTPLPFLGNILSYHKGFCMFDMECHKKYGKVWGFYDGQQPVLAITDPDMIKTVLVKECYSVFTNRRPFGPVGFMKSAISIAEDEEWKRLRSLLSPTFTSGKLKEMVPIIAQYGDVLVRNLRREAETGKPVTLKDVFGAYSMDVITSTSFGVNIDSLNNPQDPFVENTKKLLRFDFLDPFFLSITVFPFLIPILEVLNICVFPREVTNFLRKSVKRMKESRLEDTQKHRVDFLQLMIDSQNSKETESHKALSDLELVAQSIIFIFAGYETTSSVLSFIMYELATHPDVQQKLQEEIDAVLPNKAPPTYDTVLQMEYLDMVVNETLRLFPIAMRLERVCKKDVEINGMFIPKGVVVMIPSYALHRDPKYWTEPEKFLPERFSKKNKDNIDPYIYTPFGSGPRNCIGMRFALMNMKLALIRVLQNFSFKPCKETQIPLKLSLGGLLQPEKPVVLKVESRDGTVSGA
(§1) A 100 mM PBS buffer was prepared. A 0.25 mg/mL microsome solution, a 7.5 mM MgCl2 and a 5 mM NADPH solution were prepared using the buffer. A 30 mM stock solution was diluted with DMSO to obtain 30 mM, 10 mM, 3 mM, 1 mM, 0.3 mM, 0.1 mM, 0.03 mM and 0 mM serial solutions I, which were further diluted 200-fold with phosphate buffer (PBS) to obtain serial test solutions II (150, 50, 15, 5, 1.5, 0.5, 0.15 and 0 μM). A midazolam working solution was diluted with PBS to 15 μM.
(§2) The serial test solutions prepared above were well mixed by shaking and aliquoted in 20 μL portions into corresponding reaction plates (+NADPH, T0 and −NADPH groups were set). Three parallel tests were set. 40 μL of the liver microsome working solution was added to each 96-well plate. 20 μL of a corresponding substrate solution was added to the T0 plate. 20 μL of NADPH was added to the TO plate and +NADPH group. A timer was started, and the plates were incubated in a water bath at 37° C. After 30 min of incubation, the TO plate was taken out, and the reaction was terminated with 250 μL of an internal standard-containing ACN solution. The +NADPH group was supplemented with 20 μL of the corresponding substrate solution, and the −NADPH group was supplemented with 20 μL of the corresponding substrate solution and […]. A timer was started, and the plates were incubated in a water bath at 37° C. After 30 min of incubation, the plates were taken out, and the reactions were terminated with 250 μL of an internal standard-containing ACN solution. Then the plates were shaken on a shaker at 800 rpm for 10 min and centrifuged at 4000 rpm for 15 min. 100 μL of the supernatant and 80 μL of ultrapure water were well mixed and subjected to LC-MS/MS analysis.
The IC50 values of the drugs for the site of metabolism of testosterone in CYP3A4 were calculated using Graphpad Prism and are shown in Table 8.
Background: Microsomes from liver hold many membrane-bound enzymes, among them those of drug oxidation.

Data set [2] deals with T1, CYP3A4. Kind of data set: Time-dependent inhibition of site of metabolism of midazolam in human liver microsome CYP3A4. To be noted: midazolam substrate; for IC50 shift at 30 min: human, human liver microsomes, probe midazolam (3 µM). As for the experimental part:
• 1. Phosphate buffer (20×PBS, purchased from Sangon); • 2. NADPH (ACROS, A2646-71-1); • 3. Human liver microsome (Corning Gentest, Cat No, 452161, Lot No. 9050002, Donor, 36); • 4. ABI QTrap 4000 LC-MS System (AB Sciex); • 5. ZORBAX Extend-C18, 3×50 mm, 3.5 μm (Agilent, USA); • 6. CYP probe substrate (midazolam, TRC, M343000/3 μM) and positive control inhibitor (verapamil, Adamas Reagent Co, Ltd, Cat No. 25904A).
as §1, §2
The IC50 values of the drugs for the site of metabolism of midazolam in CYP3A4 were calculated using Graphpad Prism and are shown in Table 7.

For data set [3], the target named is T1, CYP3A4. Kind of data set: Inhibition of site of metabolism of midazolam in human liver microsome CYP3A4. To be noted: midazolam substrate. As for the experimental part: • 1. Phosphate buffer (20×PBS, purchased from Sangon); • 2. NADPH (ACROS, A2646-71-1); • 3. Human liver microsome (Corning Gentest, Cat No, 452161, Lot No. 9050002, Donor, 36); • 4. ABI QTrap 4000 LC-MS System (AB Sciex); • 5. ZORBAX Extend-C18, 3×50 mm, 3.5 μm (Agilent, USA); • 6. CYP probe substrate (midazolam, TRC, M343000/3 μM) and positive control inhibitor (ketoconazole, SIGMA, Cat No. K1003-100MG).
A 100 mM PBS buffer was prepared. A 0.25 mg/mL microsome solution, a 7.5 mM MgCl2 and a 5 mM NADPH solution were prepared using the buffer. A 30 mM stock solution was diluted with DMSO to obtain 30 mM, 10 mM, 3 mM, 1 mM, 0.3 mM, 0.03 mM, 0.003 mM and 0 mM serial solutions I, which were further diluted 200-fold with phosphate buffer (PBS) to obtain serial test solutions II (150, 50, 15, 5, 1.5, 0.15, 0.015 and 0 μM). A midazolam working solution was diluted with PBS to 15 μM.
40 μL of a 0.25 mg/mL microsome solution prepared in 7.5 mM MgCl2 and 20 μL of each of the 15 μM midazolam working solution and the compound working solutions (150, 50, 15, 5, 1.5, 0.15, 0.015 and 0 μM) were measured out and well mixed. Ketoconazole at the same concentration was used in place of the compounds as a positive control group. The mixtures were pre-incubated with 5 mM NADPH solution at 37° C. for 5 min at the same time. After 5 minutes, 20 μL of NADPH was added to each well to start reactions. The mixtures were incubated for 30 min. Duplicate samples were set for all of the incubated samples. After 30 minutes, 250 μL of internal standard-containing acetonitrile was added to all the samples. The mixtures were well mixed, shaken at 800 rpm for 10 min, and then centrifuged at 3700 rpm for 10 min. 100 μL of the supernatant and 80 μL of ultrapure water were well mixed and subjected to LC-MS/MS analysis.
The IC50 values of the drugs for the site of metabolism of midazolam in CYP3A4 were calculated using Graphpad Prism and are shown in Table 5.

[4] abbreviates: 30 min pre-incubation with NADPH.

As for `[2H]C1([2H])Oc2cc3c(cc2O1)[C@@H](c1ccc(NC2CN(CCCF)C2)cn1)N(CC(F)(F)CO)[C@H](C)C3` [Example 13, 2,2-Difluoro-3-((5S,7R)-5-(5-((1-(3-fluoropropyl)azetidin-3-yl)amino)pyridin-2-yl)-7-methyl-7,8-dihydro-[1,3]dioxolo[4,5-g]isoquinolin-6(5H)-yl-2,2-d2)propan-1-ol], at CYP3A4 [1], the “IC50 Shift” value was “No TDI”.

For orientation: IC50 means the concentration that inhibits the measured activity by half. A high value points to a need for much substance. For the compound `[2H]C1([2H])Oc2cc3c(cc2O1)[C@@H](c1ccc(N[C@H]2CCN(CCCF)C2)cn1)N(CC(F)(F)CO)[C@H](C)C3` [Example 12, 2,2-Difluoro-3-((5S,7R)-5-(5-(((S)-1-(3-fluoropropyl)pyrrolidin-3-yl)amino)pyridin-2-yl)-7-methyl-7,8-dihydro-[1,3]dioxolo[4,5-g]isoquinolin-6(5H)-yl-2,2-d2)propan-1-ol], the IC50 shift at 30 min on CYP3A4 [2] was found to be 0.9; at CYP3A4 [1], 0.5. The IC50 was determined as 9.16 µM against CYP3A4 [2] (setting [4]); 10.2 µM against CYP3A4 [2] (pre-incubation without NADPH); 8.18 µM against CYP3A4 [3]; 11.6 µM at CYP3A4 [1] (setting [4]); 25.2 µM at CYP3A4 [1] (pre-incubation without NADPH).

`C[C@@H]1Cc2cc3c(cc2[C@@H](c2ccc(N[C@H]4CCN(CCCF)C4)cc2)N1CC(F)(F)F)OCO3` [Example 1, (S)-1-(3-fluoropropyl)-N-(4-((5R,7R)-7-methyl-6-(2,2,2-trifluoroethyl)-5,6,7,8-tetrahydro-[1,3]dioxolo[4,5-g]isoquinolin-5-yl)phenyl)pyrrolidin-3-amine]: the IC50 against CYP3A4 [3] stood at 15.8 µM.

On CYP3A4 [3], `C[C@@H]1Cc2cc3c(cc2[C@@H](c2ccc(N[C@H]4CCN(CCCF)C4)cc2)N1CC(F)(F)CO)OCO3` [Example 3, 2,2-Difluoro-3-((5R,7R)-5-(4-(((S)-1-(3-fluoropropyl)pyrrolidin-3-yl)amino)phenyl)-7-methyl-7,8-dihydro-[1,3]dioxolo[4,5-g]isoquinolin-6(5H)-yl)propan-1-ol] returned an IC50 of 10 µM.

For the compound `C[C@@H]1Cc2cc3c(cc2[C@@H](c2c(F)cc(N[C@H]4CCN(CCCF)C4)cc2F)N1CC(F)(F)F)OCO3` [Example 2, (S)—N-(3,5-difluoro-4-((5S,7R)-7-methyl-6-(2,2,2-trifluoroethyl)-5,6,7,8-tetrahydro-[1,3]dioxolo[4,5-g]isoquinolin-5-yl)phenyl)-1-(3-fluoropropyl)pyrrolidin-3-amine], the 50% inhibitory concentration (IC50) at CYP3A4 [3] was over 30 µM.

Consider `C[C@@H]1Cc2cc3c(cc2[C@@H](c2ccc(N[C@H]4CCN(CCCF)C4)cn2)N1CC(F)(F)CO)OCO3` [Example 4, 2,2-Difluoro-3-((5S,7R)-5-(5-(((S)-1-(3-fluoropropyl)pyrrolidin-3-yl)amino)pyridin-2-yl)-7-methyl-7,8-dihydro-[1,3]dioxolo[4,5-g]isoquinolin-6(5H)-yl)propan-1-ol], for which the IC50 shift at 30 min at CYP3A4 [2] and on CYP3A4 [1] was 1 throughout. Besides, the IC50 against CYP3A4 [2] (setting [4]) turned out to be 2.43 µM; at CYP3A4 [2] (pre-incubation without NADPH) it was 2.47 µM; against CYP3A4 [1] (setting [4]), 2.4 µM; against CYP3A4 [1] (pre-incubation without NADPH), 2.5 µM.
